Consider 1 molecule from patent publication US11135223B2, “Compositions and methods for inhibiting Dkk-1” (YALE UNIVERSITY, priority 2016, dated 2021).

This experiment relates to L. major. The experiment in a line: Leishmania (L.) major infection model. In kind it is in vivo, BALB/c mice. The procedure: FIG. 4, comprising FIG. 4A through FIG. 4H, depicts results of experiments showing functional inhibition of Dkk-1 protects the host from chronic inflammation caused by L. major. FIG. 4A depicts a schematic diagram for Dkk-1 inhibitor treatment (10 μg/kg/time) in six-week-old female BALB/c mice. FIG. 4B depicts analysis of parasite burden in the infected foot from each mouse at day 42. FIG. 4C depicts the lesion size in the infected foot from each mouse at day 42. FIG. 4D depicts the cell count of macrophages in the infected hindfoot of mice two weeks after vehicle (n=5) or Dkk-1 inhibitor treatment (n=5) counted by flow cytometry and compared with infected (untreated) and uninfected BALB/c mice (n=3). FIG. 4E depicts results of draining lymph node cells from each mouse (n=5/group) that were stimulated with sLMAG (soluble leishmania antigen) 2 weeks after infection. FIG. 4F depicts results of draining lymph node cells from each mouse (n=5/group) were stimulated with sLMAG 6 weeks after infection. FIG. 4G depicts the CD4 cell percentage in draining lymph nodes from each group was determined by flow cytometry. FIG. 4H depicts CD4 T cell numbers in draining lymph nodes from each group was determined by flow cytometry. A representative of two independent experiments is shown. Student's t-test and one-way-ANOVA analysis with Dunnet's post-hoc test were performed. **, p<0.005, *, p<0.05.
FIG. 17, comprising FIG. 17A and FIG. 17B, depicts results of experiments showing a Dkk-1 monoclonal antibody treatment protects BALB/c mice from chronic inflammation caused by L. major. FIG. 17A depicts the number lymph node cells were in L. major infected BALB/c mice injected with a Dkk-1 monoclonal antibody or isotype control antibody. BALB/c mice were infected with L. major (2 million parasites/animal) on day 0. Dkk-1 mAb or isotype control antibody (100 μg/injection) was injected intraperitoneally into six-week-old female BALB/c mice on day −1, +1, +3, +5, +7, +9, +11, +14 (n=6). On day 14, mice were sacrificed, and their drained lymph node cells were counted. Student's t-test was performed. *,p<0.05. FIG. 17B depicts the lesion size in BALB/c mice injected with a Dkk-1 monoclonal antibody or isotype control antibody. Six-week-old female BALB/c mice were infected with L.major, and DKK-1 mAb was treated intraperitoneally on day −1, +1, +3, +5, +7, +9, +11, +14, +21 and +28. Lesion size for each mouse was measured on day 12, 22, and 32. Student's t-test was performed. *, p<0.05.
L. major WR309 strain (MHOM/IL/79/LRC-L251) was originally isolated from a human case of cutaneous leishmaniasis in Israel and has been maintained through culture and frequent passages in mice to maintain virulence. BALB/c mice were infected with 2×10^6 late stationary promastigotes isolated from a Percoll gradient. For monitoring 2 week and 6 week experiments, Dkk-1 inhibitor (10 mg/kg) or vehicle (50 μl DMSO) was injected on day −1, +1, +3, +5, +7, +9, +11 and weekly afterwards till harvest. Draining lymph nodes, nondraining lymph nodes, and plasma were collected. For ex vivo analysis, soluble Leishmania major antigen (sLMAg) was employed. Single cell suspension of draining and non-draining lymph node cells was incubated with sLMAg (equivalent to 5×10^6 organisms/ml final) for 96 hr. Supernatants were harvested and analyzed by ELISA assays. For depleting platelets, 80 μg of anti-CD42 mAb (Emfret Analytical) was injected intravenously in 100 μl PBS. Equal amounts of isotype-matched control Ab (eBioscience) was used for control group animals. Tissues from mice were harvested on day 3 post-infection for analysis.
To determine the ability of an anti-Dkk-1 monoclonal antibody (Dkk-1 mAb) to protect BALB/c mice against chronic inflammation caused by L. major, 6-week old BALB/c mice were infected with L.major (2 million parasites/animal) on day 0. A Dkk-1 mAb or isotype control antibody (100 μg/injection) was injected intraperitoneally on day −1, +1, +3, +5, +7, +9, +11, +14 (n=6). […]

[1] abbreviates: BALB/c mice, infected foot, 42 days post-infection.
The mark [2] stands for this setting: days 14 and 42 post-infection, ex vivo stimulation of draining lymph node cells with sLMAG.

SMILES strings stand for the structures.

In the case of `NCC1CCN(c2nccc(-c3ccc4ccccc4c3)n2)CC1` [WAY-262611, (1-(4-(naphthalen-2-yl)pyrimidin-2-yl)piperidin-4-yl)methanamine], the “reduction of parasite survival” value (BALB/c mice, 10 mg/kg intraperitoneally, 42 days post-infection) turned out to be 11.5 fold. In addition, under setting [1], the lesion size result is “greatly reduced” and the parasite burden result is “greatly reduced”. For the same molecule, the “percentage of CD4 T cells in draining lymph nodes (dLN)” value (FIG. 4G) is given as “did not reduce”. Besides, the “number of CD4 T cells in the dLN” value (FIG. 4H) is “reduced”. For the same molecule, under setting [2], the IL-4 production result is reported as “notably reduced” and the IL-10 production entry is “notably reduced”. In addition, the “Macrophage accumulation following parasite infection” value (infected hindfoot, 14 days after infection) is “diminished”.
